# Results taken from patent US20230398130A1, “METHODS AND COMPOSITIONS FOR DIFFERENTIATING STEM CELLS” (Massachusetts Institute of Technology, priority 2020, published 2023).
# Key:
# [1] = test system: ISC-enriched organoids; experiment: Primary screen, 384-well 2.5-D organoid differentiation (ENR+CD, 6 days, Target Selective Inhibitor Library, vs whole-plate median): ATP (CellTiter-Glo 3D, CTG); settings: for Dose.FC.CTG: ENR+CD, 6 days, FC vs plate median; for Z.CTG: standard z score of FC
# [2] = test system: ISC-enriched organoids; experiment: Primary screen, 384-well 2.5-D organoid differentiation (ENR+CD, 6 days): carbachol-induced lysozyme secretion (LYZ.S); format: cell-based, murine; settings: ENR+CD, 6 days, FC vs plate median
# From the text: (§1) High-throughput screening.
# [3] = test system: ISC-enriched organoids; experiment: Primary screen, 384-well 2.5-D organoid differentiation (ENR+CD, 6 days): basal lysozyme secretion (LYZ.NS); format: cell-based, murine; settings: for Dose.FC.LYZ.NS: ENR+CD, 6 days, FC vs plate median; for Z.LYZ.NS: standard z score of FC
# From the text: as §1
Structure (SMILES),Dose.FC.CTG ([1]; Dose 0.08 uM) [log 2 fold change],Z.CTG ([1]; Dose 0.08 uM),Dose.FC.CTG ([1]; Dose 0.40 uM) [log 2 fold change],Z.CTG ([1]; Dose 0.40 uM),Dose.FC.CTG ([1]; Dose 2.00 uM) [log 2 fold change],Z.CTG ([1]; Dose 2.00 uM),Dose.FC.CTG ([1]; Dose 10.00 uM) [log 2 fold change],Z.CTG ([1]; Dose 10.00 uM),Dose.FC.LYZ.S ([2]; Dose 0.08 uM) [log 2 fold change],Dose.FC.LYZ.S ([2]; Dose 0.40 uM) [log 2 fold change],Dose.FC.LYZ.S ([2]; Dose 2.00 uM) [log 2 fold change],Dose.FC.LYZ.S ([2]; Dose 10.00 uM) [log 2 fold change],Dose.FC.LYZ.NS ([3]; Dose 0.08 uM) [log 2 fold change],Z.LYZ.NS ([3]; Dose 0.08 uM),Dose.FC.LYZ.NS ([3]; Dose 0.40 uM) [log 2 fold change],Z.LYZ.NS ([3]; Dose 0.40 uM),Dose.FC.LYZ.NS ([3]; Dose 2.00 uM) [log 2 fold change],Z.LYZ.NS ([3]; Dose 2.00 uM),Dose.FC.LYZ.NS ([3]; Dose 10.00 uM) [log 2 fold change],Z.LYZ.NS ([3]; Dose 10.00 uM)
Cc1ccc([C@@H]2O[C@H](CO)[C@@H](O)[C@H](O)[C@H]2O)cc1Cc1ccc(-c2ccc(F)cc2)s1 [Canagliflozin],−0.240,−0.572,−0.098,−0.235,0.042,0.101,−0.079,−0.188,0.014,−0.032,0.028,−0.033,−0.027,−0.233,−0.046,−0.398,0.025,0.214,−0.064,−0.556
CC1(COc2ccc3c(c2)ncn3-c2ccc3cccc(N4CCC(N)CC4)c3n2)COC1 [Crenolanib (CP-868596)],−0.069,−0.165,−0.025,−0.059,0.053,0.127,−0.338,−0.808,0.094,0.043,0.149,−0.292,0.121,1.051,0.051,0.441,0.122,1.065,−0.224,−1.951
C[C@H]1COC2=C1C(=O)C(=O)c1c2ccc2c1CCCC2(C)C [Cryptotanshinone],0.199,0.475,−0.027,−0.065,−0.184,−0.439,−0.541,−1.292,0.156,−0.105,−0.288,−0.432,0.143,1.243,−0.120,−1.047,−0.182,−1.585,−0.288,−2.506
c1ccc(CNc2nc(NCc3ccccc3)c3ccccc3n2)cc1 [DBeQ],0.119,0.285,−0.013,−0.031,0.004,0.010,−1.133,−2.706,0.045,0.210,−0.103,−0.423,0.097,0.844,0.064,0.558,−0.048,−0.414,−0.296,−2.577
CNC(=O)c1cc(Oc2ccc(NC(=O)Nc3cc(C(C)(C)C)nn3-c3ccc4ncccc4c3)c(F)c2)ccn1 [DCC-2036 (Rebastinib)],0.216,0.516,0.218,0.520,−0.038,−0.091,−0.322,−0.769,0.358,0.186,0.054,−0.244,0.259,2.256,0.128,1.116,0.073,0.637,−0.209,−1.823
CC(C)Oc1ccc(-c2cnc3c(-c4ccnc5ccccc45)cnn3c2)cc1 [DMH1],−0.031,−0.075,−0.079,−0.188,−0.002,−0.004,−0.001,−0.003,0.078,0.054,0.035,−0.092,0.018,0.155,0.026,0.231,0.014,0.124,−0.075,−0.657
Cc1ccc2c(=O)c3cccc(CC(=O)O)c3oc2c1C [DMXAA (Vadimezan)],−0.568,−1.357,−0.629,−1.502,−0.477,−1.139,−0.230,−0.550,−0.091,−0.009,−0.094,−0.118,−0.007,−0.065,−0.036,−0.317,−0.038,−0.334,−0.031,−0.271
CC(C)(C)c1nc(-c2cccc(NS(=O)(=O)c3c(F)cccc3F)c2F)c(-c2ccnc(N)n2)s1 [Dabrafenib (GSK2118436)],−0.134,−0.320,0.011,0.026,−0.279,−0.667,−0.800,−1.911,0.236,0.103,0.019,−0.384,0.095,0.830,0.049,0.427,−0.001,−0.006,−0.250,−2.178
